Test results published in patent US9687486B2, “Methods of treating atherosclerosis or myeloproliferative neoplasms by administering a lyn kinase activator” (THE TRUSTEES OF COLUMBIA UNIVERSITY IN THE CITY OF NEW YORK, priority 2012, dated 2017).
Where a SMILES comes first, the peptide text is derived from it. The star is where a group is joined. Cbz = O=C(OCc1ccccc1)*

Tests used:
[1] = system: c-MPL; assay: Cell surface c-MPL levels in MkPs by flow cytometry; assay type: cell-based, mouse; conditions: TPO 30 ng/ml
Protocol: Detection of c-MPL from in vivo and in vitro experiments was performed as follows. After harvesting BM progenitor cells, RBCs were lysed and the cells were then resuspended in FACS buffer. Cells were then stained with a cocktail of lineage markers to allow negative selection of BM progenitor cells (Sca1, CD127, CD45R, CD19, CD11b, CD3e, TER-119, CD2, CD8, CD4, and Ly-6C/G; all FITC; eBioscience) and progenitor cell markers, ckit, CD16/CD32 (FcγRII/III), CD34, CD41 and c-MPL or isotype control and allowed to stain on ice for 30 mins. Cells were then washed and stained with a fluorescently conjugated secondary anti-rabbit antibody to detect the anti-c-MPL for a further 30 mins on ice. After this the cells were washed, resuspended in FACS buffer and run on the LSRII. MEPs were identified as lin^− ckit^+CD16/CD32^loCD34^loCD41^−, while MkPs were identified as lin^−ckit^+CD16/CD32^loCD34^loCD41^+.

[2] = system: c-CBL; assay: c-Cbl tyrosine phosphorylation in MkPs in response to TPO, flow cytometry; assay type: cell-based, mouse
Protocol: BM progenitor cells were stimulated with TPO at the indicated concentration for the specified period of time at 37° C. and then immediately diluted with ice-cold buffer and placed on ice to prevent further changes in phosphorylation. Cells were then centrifuged and the pellet resuspended in BD fix buffer (BD Biosciences) for 10 mins on ice. The cells were washed with BD flow cytometry staining buffer, centrifuged and then resuspended in BD cytofix/perm buffer III for 20 mins. After this the cells were washed and resuspended in BD staining buffer and incubated with lineage (Sca1, CD127, CD45R, CD19, CD11b, CD3e, TER-119, CD2, CD8, CD4, and Ly-6G; all FITC; eBioscience) and progenitor cell markers, ckit, CD16/CD32 (FcγRII/III), CD34, CD41 and anti-phospho-c-Cbl ([…]/[…]; BD biosciences) or an isotype control for 30 mins on ice. The cells were then washed, resuspended in FACS buffer and run on an LSRII. Phosphorylated c-Cbl was normalized against isotype control staining.

[3] = system: LacZ-positive splenic cells; assay: LacZ-positive splenic cells after phenylhydrazine injection; assay type: in vivo, mouse; conditions: Abcg4−/− mice on chow diet, 3 days after injections
From the text: FIG. 6. (A) Representative of LacZ staining of BM sections of WT or Abcg4^−/− mice fed chow diet. Megakaryocytes are indicated by black arrows while LacZ-positive cells are indicated by white arrows Original magnification 20×. (B) Lac-Z staining of spleen of WT and Abcg4^−/− mice fed the chow diet and (C) from Abcg4^−/− BM Ldlr^−/− recipient mice fed WTD for 12 weeks. (D) Representative LacZ staining of spleen sections and quantification of LacZ-positive splenic cells of Abcg4^−/− mice fed the chow diet 3 days after either vehicle or phenylhydrazine injections. Error bars are S.D (n=5). * P<0.05.
Tissues and proximal aortas were serially paraffin sectioned and stained with H&E for morphological analysis as described^2. Aortic lesion size of each animal was calculated as the mean of lesion areas in 5 sections from the same mouse. Bone samples were decalcified with EDTA solution prior to cryosectioning. Von Willibrand Factor antibody (Dako, Catalog #A0082) was used to stain MKs. Lac-Z staining of frozen sections of mouse bone, spleen or proximal aorta was carried out using β-Galactosidase Staining Kit (Cell Signaling Technology, Danvers, Mass.).

[4] = biological target: T1, c-MPL (Mus musculus, UniProt Q08351); conditions: mice and other species; Broudy & Lin 2004; cited from earlier work
T1 construct: increasing platelet counts in mice and other species; host or cells: mice (in vivo)
T1 sequence (Q08351 26-625): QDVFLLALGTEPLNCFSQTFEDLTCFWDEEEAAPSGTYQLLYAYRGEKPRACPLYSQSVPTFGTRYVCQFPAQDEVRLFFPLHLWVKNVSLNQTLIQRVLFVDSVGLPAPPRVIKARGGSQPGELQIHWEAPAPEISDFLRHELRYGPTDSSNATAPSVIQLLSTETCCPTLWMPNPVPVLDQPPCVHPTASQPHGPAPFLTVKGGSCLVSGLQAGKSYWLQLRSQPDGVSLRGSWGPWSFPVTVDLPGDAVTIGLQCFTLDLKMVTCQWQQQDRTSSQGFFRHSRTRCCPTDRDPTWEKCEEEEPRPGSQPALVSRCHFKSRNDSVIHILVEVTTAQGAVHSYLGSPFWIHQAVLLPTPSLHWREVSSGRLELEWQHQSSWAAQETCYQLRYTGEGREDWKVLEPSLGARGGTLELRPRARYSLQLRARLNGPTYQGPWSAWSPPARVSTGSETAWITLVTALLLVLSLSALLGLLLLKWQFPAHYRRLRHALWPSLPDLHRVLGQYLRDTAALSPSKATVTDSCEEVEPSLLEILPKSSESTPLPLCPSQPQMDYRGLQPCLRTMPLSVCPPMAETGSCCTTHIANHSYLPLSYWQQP

[5] = system: p-STAT-5 and p-ERK1/2; assay: p-STAT5 and p-ERK1/2 levels in MkPs with or without TPO; assay type: cell-based, mouse; conditions: WT and Abcg4−/− MkPs; TPO 30 ng/ml for 10 minutes
Protocol: FIG. 3. Shown are results all from WT, Abcg4^−/− or Lyn^−/− MkPs (n=4). (A) Quantification of tyrosine-phosphorylated c-CBL in response to TPO. (B) Tyrosine-phosphorylated c-CBL levels 5 min after TPO treatment and with or without pretreatment with CD (3 mM), CD-chol (3 mM CD) for 30 min or rHDL (20 μg apoA-I/ml) for 2 hours. (C) Tyrosine-phosphorylated c-CBL with or without 5 min TPO treatment or SU6656 pretreatment (10 μg/ml for 2 h). (D) Cell surface c-MPL with or without TPO or SU6656 treatment for 2 h. (E) Tyrosine-phosphorylated c-CBL (5 min in response to TPO). (F) cell surface c-MPL (2 h TPO treatment) with or without pretreatment with CD-chol (3 mM CD) for 30 min. (G) 16 h EdU incorporation in the presence of TPO and with or without CD (3 mM), CD-Chol (3 mM CD) pretreatment for 30 min or rHDL (20 μg/ml) for 16 h. (H) p-STAT-5 and p-ERK1/2 levels with or without TPO for 10 minutes. TPO was 30 ng/ml for all the assays shown. Error bars are S.E.M. *P<0.05 WT vs Abcg4^−/− TPO and ^P<0.05 for treatment effect.

[6] = system: platelets; assay: Platelet count after a single dose of recombinant TPO in chow-fed mice; assay type: in vivo, mouse; conditions: single dose TPO 50 μg/kg BW
Protocol: FIG. 2. (A) Abcg4 mRNA expression in various types of BM and peripheral white blood cells in WT mice determined by q-PCR. (n=5). (B) Quantification of BM cell populations and (C) cell surface c-MPL levels of Ldlr^−/− recipient mice fed WTD for 12 weeks (n=5). (D) MK-CFU assay using HPCs harvested by FACS from WT or Abcg4^−/− mice. (E) Platelet count in the WT and Abcg4^−/− mice (n=5) receiving a single dose of TPO (50 μg/kg BW) or the vehicle control. The representative of two studies with similar results is shown. (F) Bodipy-cholesterol efflux from WT or Abcg4^−/− MkPs to CD (2 mM) or rHDL (20 μg/ml) for 2 hours (n=4). (G) Bodipy-cholesterol levels in WT or Abcg4^−/− MkPs following CD/Bodipy-cholesterol loading (n=4). (H) EdU incorporation into and (I) cell surface c-MPL of WT or Abcg4^−/− MkPs were determined by flow cytometry (n=4). Error bars are S.E.M. *P<0.05 WT versus Abcg4^−/− groups and ^P<0.05 for treatment effect.
Mice and Treatments Abcg4^−/−, Abcg1 Abca1^−/−, and Abcg1^−/− mice were created as described (Wang, N. et al. 2006; Yvan-Charvet, L. et al. 2010) and used in this study. Abcg4^−/− mice have been backcrossed onto C57BL6/J mice for more than 10 generations. WT (C57BL/6J) and Ldlr^−/− (B6.12957-Ldlrtm1Her) were obtained from The Jackson Laboratory (Bar Harbor, Me.). […]
CBCs were quantified using whole blood collected from the tail bleeding. […]

[7] = system: MkPs; assay: MkP proliferation by EdU incorporation; assay type: cell-based, mouse; conditions: in the presence of TPO
Protocol: FIG. 3. Shown are results all from WT, Abcg4^-/- or Lyn^-/- MkPs (n=4). (A) Quantification of tyrosine-phosphorylated c-CBL in response to TPO. (B) Tyrosine-phosphorylated c-CBL levels 5 min after TPO treatment and with or without pretreatment with CD (3 mM), CD-chol (3 mM CD) for 30 min or rHDL (20 μg apoA-I/ml) for 2 hours. (C) Tyrosine-phosphorylated c-CBL with or without 5 min TPO treatment or SU6656 pretreatment (10 μg/ml for 2 h). (D) Cell surface c-MPL with or without TPO or SU6656 treatment for 2 h. (E) Tyrosine-phosphorylated c-CBL (5 min in response to TPO). (F) cell surface c-MPL (2 h TPO treatment) with or without pretreatment with CD-chol (3 mM CD) for 30 min. (G) 16 h EdU incorporation in the presence of TPO and with or without CD (3 mM), CD-Chol (3 mM CD) pretreatment for 30 min or rHDL (20 μg/ml) for 16 […]-5 and p-ERK1/2 levels with or without TPO for 10 minutes. TPO was 30 ng/ml for all the assays shown. Error bars are S.E.M. *P<0.05 WT vs Abcg4^-/- TPO and ^P<0.05 for treatment effect. Blood leukocytes and BM HSPCs were stained and analyzed or sorted as described (Murphy, A. J. et al. 2011). Briefly, BM cells from the mouse femurs and tibias were stained with a cocktail of antibodies to lineage committed cells (CD45R, CD19, CD11b, CD3e, TER-119, CD2, CD8, CD4, Ly-6C/G: All FITC, eBioscience), antibodies to Sca1 (Pacific Blue) and ckit (APC Cy7) to identify HSPC populations and LSK (lin-, Sac1+ and ckit+) cells, and antibodies to CD16/CD32 (FcγRII/III), CD34 to separate CMP (lin-, Sca1-, ckit+, CD34int, […] (lin-, Sca1-, ckit+, CD34int, […] (lin-, Sca1-, ckit+, CD34lo, FcγRII/IIIlo). For DNA content analysis (G2M phase), BM cells were fixed, and stained with DAPI (Invitrogen) prior to flow cytometry analysis. To determine in vivo cell proliferation, EdU (Invitrogen) was injected into mice via the tail vein 24 hours prior to being sacrificed. Cells were immunostained as described above in preparation for flow cytometry. Cells were then fixed and permeabilized using 0.01% saponin (w/v; Fluka) and 1% FCS (v/v) in IC fixation buffer (eBiosciences) for 30 minutes. Cells were then washed and stained with Alexa Fluor-conjugated azides using the Click-iT system (Invitrogen). Proliferation was quantified as percentage of EdU^+ cells by flow cytometry.

[8] = system: total BM cells from WT or Abcg4−/− mice; assay: MK-CFU assay with total BM cells, with or without CD pretreatment; assay type: cell-based, mouse; conditions: CD 3 mM pretreatment for 30 minutes
Protocol: FIG. 13. (A) Fluorescence confocal microscopy of WT or Abcg4^−/− MkPs treated with CD/Bodipy-cholesterol (0.03 mM CD) for 30 min and (B) confocal microscopy and quantification of fillipin stained WT or Abcg4^−/− MkPs. Gene expression was determined by q-PCR in (C) MEPs or (D) GMPs from the WT or Abcg4^−/− BM Ldlr^−/− recipient mice (n=5) fed WTD for 12 weeks. Error bars are S.D (n=10). *P<0.05. (E) MK-CFU assays using total BM cells from WT or Abcg4^−/− mice with or without pretreatment with CD (3 mM) for 30 minutes. Error bars are S.E.M. *P<0.05.
Primary BM HSPC cells obtained by FACS were plated in methylcellulose-based media (5000 cells/assay) containing TPO (50 ng/mL), IL-6 (20 ng/mL), and IL-3 (10 ng/mL) and incubated for 8 days according to manufacturer's protocol (Megacult-C, Stemcell Technologies). Cultures were fixed and the MK colonies visualized by staining for acethylcholinesterase activity. Nuclei were counterstained with Harris' hematoxylin. Colonies containing more than 3 megakaryocytes were scored as CFU-Mk.

CC(C)C[C@@H](C=O)NC(=O)[C@H](CC(C)C)NC(=O)[C@H](CC(C)C)NC(=O)OCc1ccccc1 [MG132] (Cbz-Leu-Leu-Leu-aldehyde)
cell surface c-MPL levels ([1]; WT MkPs): increased

CN(C)S(=O)(=O)c1ccc2c(c1)/C(=C/c1cc3c([nH]1)CCCC3)C(=O)N2 [SU6656]
c-CBL tyrosine phosphorylation ([2]; WT and Abcg4−/− MkPs): markedly decreased | cell surface c-MPL levels ([1]; WT and Abcg4−/− MkPs): increased

CCN(CC)CCO[C@H]1CC[C@@]2(C)C(=CC[C@@H]3[C@@H]2CC[C@]2(C)C(=O)CC[C@@H]32)C1 [U18666A]
c-CBL tyrosine phosphorylation ([2]; Abcg4−/− MkPs): reversed | cell surface c-MPL levels ([1]; Abcg4−/− MkPs): reversed

NNc1ccccc1 [phenylhydrazine]
LacZ positive cells in the spleen [3]: marked expansion

Romiplostim
platelet counts [4]: increasing

TPO: Thrombopoietin, growth factor regulating megakaryocyte/platelet lineage development (R&D Systems)
p-ERK1/2 levels [5]: increased | p-STAT5 levels [5]: increased | increase in platelets ([6]; chow-fed Abcg4−/− mice): 2.1 fold | increase in platelets ([6]; chow-fed WT mice): 1.4 fold

cyclodextrin [CD]
c-CBL tyrosine phosphorylation ([2]; WT and Abcg4−/− MkPs): increased | MkP proliferation ([7]; Lyn−/− MkPs): completely unresponsive | MkP proliferation ([7]; WT MkPs): decreased | MkP proliferation ([7]; WT and Abcg4−/− MkPs): significantly reduced | cell surface c-MPL levels ([1]; WT and Abcg4−/− MkPs): significantly reduced | increase in megakaryocyte colonies associated with ABCG4 deficiency [8]: reversed
